Active and inactive are the calls of the source.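 Rule for the calls: active = compounds giving half or more protection of infected cells from virus-caused growth loss, again on retest; inactive = the rest.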 Where a SMILES comes first, the peptide text is derived from it. The star is where a group is joined. ONb = O=[N+]([O-])c1ccc(CO*)cc1; Cbz = O=C(OCc1ccccc1)*
Test system: CEM cells HIV-1 protection, formazan growth assay
Assay: NCI AIDS Antiviral Assay
Settings: for IC50: measured here: growth of uninfected CEM cells
In short: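 CEM (human) cells, HIV-1 infected vs uninfected, 5-point dosing, formazan growth read-out. Retest threshold 50% protection.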

Row | Structure (SMILES) | EC50 [µM] | IC50 [µM] | outcome
1 | Cc1ccc2cc(N)c3ccc(C)nc3c2n1.Cc1ccc2cc(N)c3ccc(C)nc3c2n1.O=C1OC(C(O)C[O-])C(O)=C1O.[Cu+] | > 12.6 | 0.55 | 
2 | O=C1C=CC2OC(c3ccccc3)[C@H](O)C2O1 (stereo not given in full) | > 1070 | 6.92 | 
3 | COc1cc(-c2cccs2)sc1-c1cccs1 | > 9.77 | > 9.77 | 
4 | Nc1nc(Cl)nc(NCc2ccccc2)n1 | > 200 | > 200 | 
5 | Cc1ccc(/C=C2\N=C(N3CCCC(CO)C3)NC2=O)cc1 (stereo not given) | > 200 | > 200 | 
6 | Cc1cc(C)nc(NS(=O)(=O)c2ccc(Nc3c4ccccc4nc4ccc(C(=O)Nc5ccc(S(=O)(=O)N=C(N)N)cc5)cc34)cc2)n1 | > 93.3 | 47.9 | 
7 | c1ccc(N=c2nc(Nc3ccccc3)ss2)cc1 | > 200 | 30.9 | 
8 | COc1ccc2nc(-c3ccccc3)cc(N=[N+]=[N-])c2c1 |  |  | inactive
9 | C#CCC(C#C)N(CCc1ccsc1)Cc1ccccc1 (stereo not given) | > 200 | 67.6 | 
10 | COc1nc(NC2OC(COC(C)=O)C(OC(C)=O)C(OC(C)=O)C2OC(C)=O)c(C(=O)CCl)c(=O)n1C (stereo not given) |  |  | inactive
11 | CC(=O)OC1[C@@H](OC(C)=O)CN(OCc2ccccc2)C[C@H]1OC(C)=O (stereo not given in full) | > 200 | > 200 | 
12 | C[n+]1c(-c2ccc(/C=N/NC(=S)N/N=C/c3ccc(-c4cn5ccccc5[n+]4C)cc3)cc2)cn2ccccc21 | > 39.8 | 21.9 | 
13 | CC12CCC(C)(c3cc(O)c(O)cc31)c1cc(O)c(O)cc12 |  |  | inactive
14 | O=C(NNC(=S)NC1OC(CO)C(O)C(O)C1O)c1cccc(C(=O)NNC(=S)NC2OC(CO)C(O)C(O)C2O)n1 (stereo not given) |  | > 200 | 
15 | O=S(O)c1cc(Cl)cc(Cl)c1O |  |  | inactive
16 | CC1(OCc2ccccc2)C(=O)N2C1N(C(=O)OCc1ccccc1)CC2(C)C (stereo not given) | > 251 | 53.7 | 
17 | Nc1nc2nn(-c3ccc(C(=O)O)cc3)nc2c(=O)[nH]1 | > 200 | > 200 | 
18 | CC(C)CC(NC(=O)C(Cc1cnc[nH]1)NC(=O)C(Cc1ccccc1)NC(=O)C1CCCN1C(=O)OCc1ccccc1)C(=O)NC(CC(C)C)C(=O)NC(C(=O)NC(Cc1ccc(O)cc1)C(=O)NC(CO)C(=O)OCc1ccc([N+](=O)[O-])cc1)C(C)C (stereo not given) (Cbz-PFHLLVYS-ONb; configuration not given here) | > 11 | > 11 | 
19 | Oc1ccc2c(c1)CC[N+]1=C2CCC2CCCC21 (stereo not given) | > 209 | > 209 | 
20 | NC1CS(=O)(=O)CC1O (stereo not given) | > 200 | > 200 | 
21 | Clc1ccc(C(Cc2ccccc2)c2c(Cl)nc(N3CCNCC3)nc2Cl)cc1 (stereo not given) | > 200 | 9.12 | 
22 | CC12NN=NC1C(=O)NC2=O (stereo not given) | > 200 | > 200 | 

Row | Structure (SMILES) | EC50 [µM] | IC50 [µM] | outcome
23 | CCc1cccc(C)c1NC(=S)NC(=O)c1ccccc1C(=O)NC(=S)Nc1c(C)cccc1CC | > 69.2 | > 69.2 | 
24 | CCS(CC)(CC)CC1CCCC2=CCC(P(=O)(c3ccccc3)c3ccccc3)CC21 (stereo not given) | > 15.5 | > 15.5 | 
25 | CC1=NN(c2ccccc2)C(=O)/C1=C\n1c(=S)[nH]c2ccccc21 | > 200 | 87.1 | 
26 | C#CCN(Cc1ccc2nc(-c3ccccc3)c(Cl)nc2c1)c1ccc(F)cc1 | > 200 | 27.5 | 
27 | COC1=C(C)C(=O)C(=O)c2c(C)ccnc21 |  |  | inactive
28 | Nc1ncnc2c1ncn2CC(O)C(=O)O (stereo not given) |  |  | inactive
29 | O=C1C(I)=CC(=C(c2cc(I)c(O)c(I)c2)c2ccccc2C(=O)O)C=C1I |  |  | inactive
30 | COc1ccc(C(=O)c2ccccc2)c(O)c1 | > 200 | > 200 | 
31 | COC(=O)N/N=C(\c1nc2ccc(Cl)cc2[nH]c1=O)C(O)c1ccc([N+](=O)[O-])cc1 (stereo not given) | > 575 | 550 | 
32 | C[C@]12CC(C=O)C(=O)C(O)=C1CC[C@@H]1C2CC[C@@]2(C)C1CC[C@]2(C)O (stereo not given in full) |  |  | inactive
33 | CC(=O)c1c(O)n(-c2ccc(C)cc2)c(=O)c2c(N)n[nH]c12 | 100 | 117 | 
34 | Cc1cc(Br)cc(C)c1NC(=O)C(=O)C(C(=O)c1ccc2ccccc2c1)C1OC(=O)c2ccccc21 (stereo not given) | > 64.6 | 12.9 | 
35 | CC(=O)Oc1ccc([As](=O)(O)O)cc1N | > 200 | > 200 | 
36 | COC(OC)[C@@H](C)[C@H](O)[C@](C)(O)C1OC(C)(C)OC(C(C)C=C(C)C)C1C (stereo not given in full) |  |  | inactive
37 | CCOC(=O)C1=[N+]([O-])OC2=C(O)CCCC21 (stereo not given) |  |  | inactive
38 | CC(CC=O)Nc1nn2c(=O)c3ccccc3nc2s1 (stereo not given) | > 200 | 132 | 
39 | [N-]=[N+]=NC1(c2ccccc2)C(=O)Nc2ccccc2C1=O (stereo not given) | > 58.9 | 30.2 | 
40 | NC(=O)c1cnc2cc(O)c(O)cc2c1 | > 209 | 14.1 | 
41 | Nc1o[nH]c(=O)c1-c1ccccc1 | > 200 | > 200 | 
42 | COC1=CC(=O)C2C(C1=O)C(c1ccccc1)[C@H]2C (stereo not given in full) | > 372 | 22.9 | 
43 | Cc1ccc2nc(CN3CCCC(O)C3)cc(=O)n2c1 (stereo not given) | > 200 | > 200 | 
44 | CC1(C)C(=NN=C(N)N)C(C)(C)C1=NN=C(N)N | > 50.1 | > 50.1 | 

Row | Structure (SMILES) | EC50 [µM] | IC50 [µM] | outcome
45 | O=C1CCc2nc3ccccc3c(=O)n21 | > 1260 | > 1260 | 
46 | NCCCNC(=O)c1csc(NC(=O)c2csc(NC(=O)CCCN)n2)n1 | > 437 | 174 | 
47 | Cc1c2nc3ccccc3sc-2cc(=O)c1C | > 21.4 | > 21.4 | 
48 | O=C(O)c1cc(=O)c2cccc(O)c2[nH]1 | > 200 | > 200 | 
49 | Cc1cc(=O)[nH]c(NNC(C#N)c2ccco2)n1 (stereo not given) | > 380 | > 380 | 
50 | Cc1n[nH]c(=O)n1/N=C\c1ccccc1 | > 200 | > 200 | 
51 | Cn1cc([N+](=O)[O-])cc1C(=O)Nc1ccc(S(=O)(=O)O)c2cc(S(=O)(=O)O)ccc12 | > 501 | > 501 | 
52 | Cc1occc1C(=S)Nc1ccc(Cl)c(C(=O)OC2CCCC2)c1 | 0.00295 | 16.6 | 
53 | [Cu+2].[O-]/C(=N\N=C/c1cccc(F)c1)c1ccncc1.[O-]/C(=N\N=C\c1cccc(F)c1)c1ccncc1 | > 100 | 24.5 | 
54 | Cc1ccc2ccc3ccc(C)nc3c2n1 | > 12 | 0.24 | 
55 | CC1=C(N(C)C)C(=O)c2nc3n(c2C1=O)CCC3OC(N)=O (stereo not given) | > 200 | 11.2 | 
56 | NC(C(=O)O)C1=CCCCCC1 (stereo not given) | > 200 | > 200 | 
57 | CC(=O)C(=CC=C(c1ccc(N(C)C)cc1)c1ccc(N(C)C)cc1)C(C)=O | > 5.37 | 3.24 | 
58 | N#Cc1c(N)c2c(c(-c3ccccc3)c1-c1ccccc1)C(=O)N(O)C2=O | > 200 | 44.7 | 
59 | Clc1ccc(CN2COc3c(cc(Cl)c4cccnc34)C2)c(Cl)c1 | > 100 | 1.74 | 
60 | COc1ccc(Cn2c3ccc([N+](=O)[O-])cc3c(=O)n2Cc2ccccn2)cc1 | > 200 | > 200 | 
61 | COC(=O)C12C3C4C1C1C2C3C41C(=O)N(C(C)C)C(C)C (stereo not given) | > 871 | > 871 | 
62 | Cc1ncc2c(n1)-c1ccccc1OC2O (stereo not given) | > 200 | > 200 | 
63 | CNc1ccc(Cl)cc1S(=O)(=O)c1ccccc1[N+](=O)[O-] | 0.562 | 741 | 
64 | COc1ccc(-c2nnc3n(Cc4ccccc4)c4ccccc4n3c2=O)cc1 | > 200 | > 200 | 
65 | O=C(Nc1cc(Cl)c(Cl)cc1Cl)C(=O)C1C=CCS1(=O)=O (stereo not given) | > 51.3 | > 51.3 | 
66 | Cc1cc(O)c2c(c1)C(=O)c1cc(O)cc(O)c1C2=O |  |  | inactive

Row | Structure (SMILES) | EC50 [µM] | IC50 [µM] | outcome
67 | CCC1CC[N-]CC1.CCC1CC[N-]CC1.CCC1CC[N-]CC1.CCC1CC[N-]CC1.N#C[S-].N#C[S-].[Mn] | > 200 | 27.5 | 
68 | Cc1c(Cl)nc(Nc2nc3ccccc3[nH]2)nc1Cl |  |  | inactive
69 | O=C1/C(=C\c2cccc(Oc3ccccc3)c2)S(=O)(=O)C(c2ccccc2)N1c1ccccc1Cl (stereo not given) | > 2 | 0.0427 | 
70 | c1cc2c3c(c1)ncn3C[C@@H]1CCCN1C2 | > 295 | > 295 | 
71 | CCOC1C(CC/C=C\c2ccccc2)CCCCN1C(=O)OC(C)(C)C (stereo not given) | > 251 | > 251 | 
72 | Cn1c(=O)n2c(=O)n(C)c(=O)n2c1=O | > 200 | > 200 | 
73 | N#CC(C#N)=C1NC(=O)CC(=O)N1 |  |  | inactive
74 | COc1c(Cl)cc(C(=CCNC(=O)C[C@H]2CC[C@@]3(C)[C@@H](CC[C@@H]4[C@@H]3CC[C@]3(C)[C@@H](CC(=O)NCC=C(c5cc(Cl)c(OC)c(C(=O)O)c5)c5cc(Cl)c(OC)c(C(=O)O)c5)CC[C@@H]43)C2)c2cc(Cl)c(OC)c(C(=O)O)c2)cc1C(=O)O | 42.7 | 186 | 
75 | C/C(N=NS(=O)(=O)c1c(C)cc(C)cc1C)=C1\C=CC=CN1O |  |  | inactive
76 | Clc1nc2n(c1/C=C/c1cccs1)CCS2 | > 200 | 20.4 | 
77 | N#C/C(=C\c1ccc(O)c(O)c1)C(=O)Nc1ccc(C(=O)O)cc1 | > 200 | 38.9 | 
78 | CCc1ccccc1NC(=O)C(=O)C1C(=O)N(c2ccccc2)N=C1N (stereo not given) | > 708 | 224 | 
79 | Cc1cc(O)c2c(c1)C(=O)C=CC2=O |  |  | inactive
80 | CC(=O)Nc1c(C#N)c2n(c1C(=O)Nc1ccccc1)CCCC2 | > 200 | > 200 | 
81 | Brc1c(C(Br)Br)ccc2ccccc12 | > 200 | 23.4 | 
82 | N#CC(C(=O)/C(=N/NC(=O)c1ccccc1O)C(C#N)c1ccc(Br)cc1)c1ccc(Br)cc1 (stereo not given) | > 23.4 | > 23.4 | 
83 | N[C@@H](Cc1ccc(O)c(O)c1)C(=O)O | > 200 | 51.3 | 
84 | CC(=O)OCC1OC(N2C(c3ccccc3)=CC(c3ccccc3)C(C#N)=C2S)C(OC(C)=O)C(OC(C)=O)C1OC(C)=O (stereo not given) | > 200 | 77.6 | 
85 | Nc1nc2c(ncn2CC2COC(CO)O2)c(=O)[nH]1 (stereo not given) | > 468 | > 468 | 
86 | CCC(C)c1c(N)o[nH]c1=O (stereo not given) | > 200 | > 200 | 
87 | Cc1cc(Cl)c2c(c1)C(=O)/C(=C/c1ccc(Cl)cc1)O2 | > 200 | 15.8 | 
88 | O=C(O)c1ccc(Nc2nc3ccccc3nc2C(=O)O)cc1 | > 200 | > 200 | 
